From US20260201008A1, “SECRETIN-DERIVED GLP1R SELECTIVE AGONISTS” (GUBRA A/S, priority 2023, published 2026)
Numbered stars: 1 amine (or outer) side, 2 acyl side, 3 side chain; on linkers, the order of the positions; unused ones are H or OH. Square brackets hold non-standard residues; d marks the D form. Side chains are listed from the residue outwards. Peptide text beside a SMILES is read from it. * marks the point of attachment. C20 diacid = O=C(O)CCCCCCCCCCCCCCCCCCC(=O)*; γGlu = O=C(O)[C@H](CCC(=O)[*:2])N[*:1]; AEEA = NCCOCCOCC(=O)O; Aib = CC(C)(N)C(=O)O

What was measured:
SCTR = SCTR (Homo sapiens, UniProt P47872); assay: hSCTR potency, cAMP accumulation in CHO-K1 cells stably overexpressing hSCTR; format: cell-based; set-up: alternatively Euroscreen ES-712-AF; FAST-0161L; host or cells: CHO-K1; conditions: cAMP accumulation, CHO-K1 cells overexpressing hSCTR; read-out: pEC50 hSCTR (converted)
SCTR, sequence (P47872 23-440): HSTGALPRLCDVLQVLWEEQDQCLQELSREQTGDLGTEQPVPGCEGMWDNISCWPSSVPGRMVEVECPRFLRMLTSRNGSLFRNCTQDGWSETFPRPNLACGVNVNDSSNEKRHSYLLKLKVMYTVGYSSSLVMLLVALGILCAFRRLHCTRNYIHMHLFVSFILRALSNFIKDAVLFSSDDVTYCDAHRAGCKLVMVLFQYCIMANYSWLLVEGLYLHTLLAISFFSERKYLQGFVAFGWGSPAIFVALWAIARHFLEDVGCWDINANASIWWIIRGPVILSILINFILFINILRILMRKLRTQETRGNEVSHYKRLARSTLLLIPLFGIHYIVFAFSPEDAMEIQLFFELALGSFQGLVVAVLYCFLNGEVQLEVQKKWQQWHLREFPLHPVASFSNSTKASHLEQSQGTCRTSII
In short: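 Division-arrested CHO-K1 cells stably expressing hSCTR were plated in DPBS with 0.05% casein and 0.5 mM IBMX, then stimulated with test peptide for 30 min at room temperature. cAMP was read by HTRF after one hour. EC50 came from variable-slope sigmoidal nonlinear regression.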

[1] = Fibril formation of crude library peptides (Thioflavin T); format: physicochemical; set-up: key: average ThT fluorescence emission at 480 nm (ex 450 nm), raw units; conditions: Physical stability of peptides
In short: (§1)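 Values reflect mean ThT emission (ex 450, em 480 nm) over 72 h at 40° C, read every 10 min after 5 min shaking at 700 rpm, plus a single initial absorbance at 600 nm for turbidity. Peptides were at 267 μM, pH 4.0 acetate or pH 7.0 phosphate (50 mM), with 4 μM ThT.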

[2] = Turbidity of crude library peptides (absorbance at 600 nm); format: physicochemical; conditions: Physical stability of peptides
In short: as §1

GLP1R = GLP1R (Homo sapiens, UniProt P43220); assay: hGLP1R potency, cAMP accumulation in CHO-K1 cells stably overexpressing hGLP1R; format: cell-based; set-up: host or cells: CHO-K1; conditions: for Selectivity: SCTR EC50/GLP1R EC50 ratio; for EC50: cAMP accumulation, CHO-K1 cells overexpressing hGLP1R, read-out: pEC50 hGLPR1 (converted)
GLP1R, sequence (P43220 24-463): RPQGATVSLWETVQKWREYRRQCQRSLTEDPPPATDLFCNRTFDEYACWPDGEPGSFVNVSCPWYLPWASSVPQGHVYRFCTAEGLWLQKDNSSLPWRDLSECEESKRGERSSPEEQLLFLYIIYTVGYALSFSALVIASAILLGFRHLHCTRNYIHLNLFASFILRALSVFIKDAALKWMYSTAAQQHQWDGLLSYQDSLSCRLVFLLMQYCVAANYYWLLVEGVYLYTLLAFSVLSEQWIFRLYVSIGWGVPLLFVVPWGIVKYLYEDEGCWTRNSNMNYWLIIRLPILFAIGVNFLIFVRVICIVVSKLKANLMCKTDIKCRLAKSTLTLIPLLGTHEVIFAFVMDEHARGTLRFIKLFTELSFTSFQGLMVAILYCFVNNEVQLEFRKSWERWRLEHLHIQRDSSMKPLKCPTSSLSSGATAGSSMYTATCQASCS
In short: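 Cells were plated in DPBS with 0.05% casein and 0.5 mM IBMX, then stimulated for 30 min at room temperature with test compound. cAMP was read by TR-FRET after one hour. EC50 came from variable-slope sigmoid nonlinear regression; purified peptides ran as 11-point 3-fold series, n=2.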

SMILES	EC50 (SCTR)	Fibril formation [1]	Turbidity (pH 7) [2]	Selectivity (GLP1R)	EC50 (GLP1R)
CC(C)C[C@H](NC(=O)[C@H](Cc1ccccc1)NC(=O)[C@H](CCCNC(=N)N)NC(=O)[C@H](CCC(N)=O)NC(=O)[C@H](CCC(N)=O)NC(=O)[C@H](C)NC(=O)[C@H](C)NC(=O)[C@H](Cc1ccccc1)NC(=O)[C@H](CCC(=O)O)NC(=O)[C@H](CCCCNC(=O)COCCOCCNC(=O)COCCOCCNC(=O)CC[C@H](NC(=O)CCCCCCCCCCCCCCCCCCC(=O)O)C(=O)O)NC(=O)[C@H](CC(C)C)NC(=O)[C@H](CCCNC(=N)N)NC(=O)[C@H](CO)NC(=O)[C@@H](NC(=O)[C@H](CC(=O)O)NC(=O)[C@H](CO)NC(=O)[C@@H](NC(=O)[C@H](Cc1ccccc1)NC(=O)[C@@H](NC(=O)CNC(=O)[C@H](CCC(=O)O)NC(=O)C(C)(C)NC(=O)[C@@H](N)Cc1c[nH]cn1)[C@@H](C)O)[C@@H](C)O)C(C)C)C(=O)N[C@@H](CCC(=O)O)C(=O)N[C@@H](Cc1c[nH]cn1)C(=O)N[C@@H](CC(C)C)C(=O)N[C@H](C(N)=O)C(C)C [compound 24] (H-H[Aib]EGTFTSDVSRLK([AEEA-AEEA-γGlu-C20 diacid])EFAAQQRFLEHLV-NH2)	158 nM	221619	0.08	2998	0.0501 nM
CC(C)C[C@H](NC(=O)[C@H](Cc1ccccc1)NC(=O)[C@H](CCCNC(=N)N)NC(=O)[C@H](CCC(N)=O)NC(=O)[C@@H](NC(=O)[C@H](C)NC(=O)[C@H](C)NC(=O)[C@@H](NC(=O)[C@H](CCC(=O)O)NC(=O)[C@H](CCCCNC(=O)COCCOCCNC(=O)COCCOCCNC(=O)CC[C@H](NC(=O)CCCCCCCCCCCCCCCCCCC(=O)O)C(=O)O)NC(=O)[C@H](CC(C)C)NC(=O)[C@H](CCCNC(=N)N)NC(=O)[C@H](CO)NC(=O)[C@@H](NC(=O)[C@H](CC(=O)O)NC(=O)[C@H](CO)NC(=O)[C@@H](NC(=O)[C@H](Cc1ccccc1)NC(=O)[C@@H](NC(=O)CNC(=O)[C@H](CCC(=O)O)NC(=O)C(C)(C)NC(=O)[C@@H](N)Cc1c[nH]cn1)[C@@H](C)O)[C@@H](C)O)C(C)C)[C@@H](C)O)[C@@H](C)O)C(=O)N[C@@H](CCC(=O)O)C(=O)N[C@@H](Cc1c[nH]cn1)C(=O)N[C@@H](CC(C)C)C(=O)N[C@H](C(N)=O)C(C)C [compound 26] (H-H[Aib]EGTFTSDVSRLK([AEEA-AEEA-γGlu-C20 diacid])ETAATQRFLEHLV-NH2)	63.1 nM	97558	0.08	4577	0.0126 nM
CC(C)C[C@H](NC(=O)[C@H](Cc1ccccc1)NC(=O)[C@H](CCCNC(=N)N)NC(=O)[C@H](CCC(N)=O)NC(=O)C(C)(C)NC(=O)[C@H](C)NC(=O)[C@H](C)NC(=O)[C@H](Cc1ccccc1)NC(=O)[C@H](CCC(=O)O)NC(=O)[C@H](CCCCNC(=O)COCCOCCNC(=O)COCCOCCNC(=O)CC[C@H](NC(=O)CCCCCCCCCCCCCCCCCCC(=O)O)C(=O)O)NC(=O)[C@H](CC(C)C)NC(=O)[C@H](Cc1ccccc1)NC(=O)[C@H](CO)NC(=O)[C@@H](NC(=O)[C@H](CC(=O)O)NC(=O)[C@H](CO)NC(=O)[C@@H](NC(=O)[C@H](Cc1ccccc1)NC(=O)[C@@H](NC(=O)CNC(=O)[C@H](CCC(=O)O)NC(=O)C(C)(C)NC(=O)[C@@H](N)Cc1c[nH]cn1)[C@@H](C)O)[C@@H](C)O)C(C)C)C(=O)N[C@@H](CCC(=O)O)C(=O)N[C@@H](Cc1c[nH]cn1)C(=O)N[C@@H](CC(C)C)C(=O)N[C@H](C(N)=O)C(C)C [compound 27] (H-H[Aib]EGTFTSDVSFLK([AEEA-AEEA-γGlu-C20 diacid])EFAA[Aib]QRFLEHLV-NH2)	3160 nM	16757	0.09	33159	0.1 nM

Results, then the molecule that gave them:

EC50 (SCTR)	Fibril formation [1]	Turbidity (pH 7) [2]	Selectivity (GLP1R)	EC50 (GLP1R)	SMILES
158 nM	7462	0.08	8143	0.02 nM	CC(C)C[C@H](NC(=O)[C@H](Cc1ccccc1)NC(=O)[C@H](CCCNC(=N)N)NC(=O)[C@H](CCC(N)=O)NC(=O)[C@H](C)NC(=O)[C@H](C)NC(=O)[C@H](C)NC(=O)[C@@H](NC(=O)[C@H](CCC(=O)O)NC(=O)[C@H](CCCCNC(=O)COCCOCCNC(=O)COCCOCCNC(=O)CC[C@H](NC(=O)CCCCCCCCCCCCCCCCCCC(=O)O)C(=O)O)NC(=O)[C@H](CC(C)C)NC(=O)[C@H](CCCNC(=N)N)NC(=O)[C@H](CO)NC(=O)[C@@H](NC(=O)[C@H](CC(=O)O)NC(=O)[C@H](CO)NC(=O)[C@@H](NC(=O)[C@H](Cc1ccccc1)NC(=O)[C@@H](NC(=O)CNC(=O)[C@H](CCC(=O)O)NC(=O)C(C)(C)NC(=O)[C@@H](N)Cc1c[nH]cn1)[C@@H](C)O)[C@@H](C)O)C(C)C)[C@@H](C)O)C(=O)N[C@@H](CCC(=O)O)C(=O)N[C@@H](Cc1c[nH]cn1)C(=O)N[C@@H](CC(C)C)C(=O)N[C@H](C(N)=O)C(C)C [compound 23] (H-H[Aib]EGTFTSDVSRLK([AEEA-AEEA-γGlu-C20 diacid])ETAAAQRFLEHLV-NH2)
7940 nM	8584	0.08	8268	1 nM	CC(C)C[C@H](NC(=O)[C@H](Cc1ccccc1)NC(=O)[C@H](CCCNC(=N)N)NC(=O)[C@H](CCC(N)=O)NC(=O)C(C)(C)NC(=O)[C@H](C)NC(=O)[C@H](C)NC(=O)[C@@H](NC(=O)[C@H](CCC(=O)O)NC(=O)[C@H](CCCCNC(=O)COCCOCCNC(=O)COCCOCCNC(=O)CC[C@H](NC(=O)CCCCCCCCCCCCCCCCCCC(=O)O)C(=O)O)NC(=O)[C@H](CC(C)C)NC(=O)[C@H](Cc1ccccc1)NC(=O)[C@H](CO)NC(=O)[C@@H](NC(=O)[C@H](CC(=O)O)NC(=O)[C@H](CO)NC(=O)[C@@H](NC(=O)[C@H](Cc1ccccc1)NC(=O)[C@@H](NC(=O)CNC(=O)[C@H](CCC(=O)O)NC(=O)C(C)(C)NC(=O)[C@@H](N)Cc1c[nH]cn1)[C@@H](C)O)[C@@H](C)O)C(C)C)[C@@H](C)O)C(=O)N[C@@H](CCC(=O)O)C(=O)N[C@@H](Cc1c[nH]cn1)C(=O)N[C@@H](CC(C)C)C(=O)N[C@H](C(N)=O)C(C)C [compound 25] (H-H[Aib]EGTFTSDVSFLK([AEEA-AEEA-γGlu-C20 diacid])ETAA[Aib]QRFLEHLV-NH2)
1260 nM	7910	0.09	55501	0.02 nM	CC(C)C[C@H](NC(=O)[C@H](Cc1ccccc1)NC(=O)[C@H](CCCNC(=N)N)NC(=O)[C@H](CCC(N)=O)NC(=O)[C@H](C)NC(=O)[C@H](C)NC(=O)[C@H](C)NC(=O)[C@H](CCC(=O)O)NC(=O)[C@H](CCC(=O)O)NC(=O)[C@H](CCCCNC(=O)COCCOCCNC(=O)COCCOCCNC(=O)CC[C@H](NC(=O)CCCCCCCCCCCCCCCCCCC(=O)O)C(=O)O)NC(=O)[C@H](CC(C)C)NC(=O)[C@@H](NC(=O)[C@H](CO)NC(=O)[C@@H](NC(=O)[C@H](CC(=O)O)NC(=O)[C@H](CO)NC(=O)[C@@H](NC(=O)[C@H](Cc1ccccc1)NC(=O)[C@@H](NC(=O)CNC(=O)[C@H](CCC(=O)O)NC(=O)C(C)(C)NC(=O)[C@@H](N)Cc1c[nH]cn1)[C@@H](C)O)[C@@H](C)O)C(C)C)C(C)C)C(=O)N[C@@H](CCC(=O)O)C(=O)N[C@@H](Cc1c[nH]cn1)C(=O)N[C@@H](CC(C)C)C(=O)N[C@H](C(N)=O)C(C)C [compound 28] (H-H[Aib]EGTFTSDVSVLK([AEEA-AEEA-γGlu-C20 diacid])EEAAAQRFLEHLV-NH2)
794 nM	28786	0.08	8541	0.1 nM	CC(C)C[C@H](NC(=O)[C@H](Cc1ccccc1)NC(=O)[C@H](CCCNC(=N)N)NC(=O)[C@H](CCC(N)=O)NC(=O)[C@H](C)NC(=O)[C@H](C)NC(=O)[C@H](C)NC(=O)[C@H](Cc1ccccc1)NC(=O)[C@H](CCC(=O)O)NC(=O)[C@H](CCCCNC(=O)COCCOCCNC(=O)COCCOCCNC(=O)CC[C@H](NC(=O)CCCCCCCCCCCCCCCCCCC(=O)O)C(=O)O)NC(=O)[C@H](CC(C)C)NC(=O)[C@@H](NC(=O)[C@H](CO)NC(=O)[C@@H](NC(=O)[C@H](CC(=O)O)NC(=O)[C@H](CO)NC(=O)[C@@H](NC(=O)[C@H](Cc1ccccc1)NC(=O)[C@@H](NC(=O)CNC(=O)[C@H](CCC(=O)O)NC(=O)C(C)(C)NC(=O)[C@@H](N)Cc1c[nH]cn1)[C@@H](C)O)[C@@H](C)O)C(C)C)C(C)C)C(=O)N[C@@H](CCC(=O)O)C(=O)N[C@@H](Cc1c[nH]cn1)C(=O)N[C@@H](CC(C)C)C(=O)N[C@H](C(N)=O)C(C)C [compound 29] (H-H[Aib]EGTFTSDVSVLK([AEEA-AEEA-γGlu-C20 diacid])EFAAAQRFLEHLV-NH2)
